From patent US20160272645A1, “Heterocyclic Compounds and Methods of Use” (MEDIVATION TECHNOLOGIES, INC., priority 2013, published 2016)

Key:
PI3Kα = molecular target: T1, PI3Kα (Homo sapiens, UniProt P42336); assay: PI3K isoform profiling, PI3Kα (PI3Kδ protocol); format: biochemical; conditions: for inhibition at 0.3 µM: compound 0.3 μM, read-out: PI3Kα @ 0.3 μM (% Inh); for IC50: 10 dose IC50
T1 construct: purchased Reaction Biology Corporation
Description: (§1) PI3Kδ assay: The PIP3 product is detected by displacement of biotin-PIP3 from an energy transfer complex consisting of Europium labeled anti-GST monoclonal antibody, a GST-tagged pleckstrin homology (PH) domain, biotinylated PIP3 and Streptavidin-Allophycocyanin (APC). Excitation of Europium in the complex results in an energy transfer to the APC and a fluorescent emission at 665 nm. The PIP3 product formed by PI3-Kinase (h) activity displaces biotin-PIP3 from the complex resulting in a loss of energy transfer and thus a decrease in signal. This is a 3-step reaction: First, the kinase reaction with PIP2 substrate is carried out in the presence of ATP (10 μM), and the reaction is quenched with stop Solution, and then finally detect by adding Detection Mixture followed by incubation (10 min). Reaction procedure: 1) Prepare substrate in freshly prepared Reaction Buffer. 2) Deliver kinase into the substrate solution and gently mix. 3) Deliver compounds in 100% DMSO (1 μM) into the kinase reaction mixture by Acoustic technology (Echo550; nanoliter range), incubate for 10 min at RT. 4) Deliver ATP into the reaction mixture to initiate the reaction. 5) Incubate for 30 min at 30° C. 6) Quench the reaction with Stop Solution. 7) Add Detection Mixture, and incubate for overnight. 8) Measure HTRF: Ex=320 nm, ratio of Em=615 nm and Em=665 nm. The emission ratio is converted into μM PIP3 production based on PIP3 standard curves. The nonlinear regression to obtain the standard curve and IC50 values are performed using Graphpad Prism software. Assay Buffer: HEPES 50 mM (pH7.0), NaN3 0.02%, BSA 0.01%, Orthovanadate 0.1 mM, 1% DMSO. Detection buffer: HEPES 10 mM (pH7.0), BSA 0.02%, KF 0.16 M, EDTA 4 mM. Substrate: 10 μM PIP2 substrate (PI(4,5)P2).
(§2) Compounds of the invention were profiled in a 10 dose IC50 panel against PI3Kα, PI3Kβ, and PI3Kγ kinases, provided by Reaction Biology Corporation, applied to the PI3Kδ protocol provided in Example B1.

PI3Kβ = molecular target: T2, PI3Kβ (Homo sapiens, UniProt P42338); assay: PI3K isoform profiling, PI3Kβ (PI3Kδ protocol); format: biochemical; conditions: for inhibition at 0.3 µM: compound 0.3 μM, read-out: PI3Kβ @ 0.3 μM (% Inh); for IC50: 10 dose IC50
T2 construct: purchased Reaction Biology Corporation
T2 sequence (P42338 whole entry, canonical isoform): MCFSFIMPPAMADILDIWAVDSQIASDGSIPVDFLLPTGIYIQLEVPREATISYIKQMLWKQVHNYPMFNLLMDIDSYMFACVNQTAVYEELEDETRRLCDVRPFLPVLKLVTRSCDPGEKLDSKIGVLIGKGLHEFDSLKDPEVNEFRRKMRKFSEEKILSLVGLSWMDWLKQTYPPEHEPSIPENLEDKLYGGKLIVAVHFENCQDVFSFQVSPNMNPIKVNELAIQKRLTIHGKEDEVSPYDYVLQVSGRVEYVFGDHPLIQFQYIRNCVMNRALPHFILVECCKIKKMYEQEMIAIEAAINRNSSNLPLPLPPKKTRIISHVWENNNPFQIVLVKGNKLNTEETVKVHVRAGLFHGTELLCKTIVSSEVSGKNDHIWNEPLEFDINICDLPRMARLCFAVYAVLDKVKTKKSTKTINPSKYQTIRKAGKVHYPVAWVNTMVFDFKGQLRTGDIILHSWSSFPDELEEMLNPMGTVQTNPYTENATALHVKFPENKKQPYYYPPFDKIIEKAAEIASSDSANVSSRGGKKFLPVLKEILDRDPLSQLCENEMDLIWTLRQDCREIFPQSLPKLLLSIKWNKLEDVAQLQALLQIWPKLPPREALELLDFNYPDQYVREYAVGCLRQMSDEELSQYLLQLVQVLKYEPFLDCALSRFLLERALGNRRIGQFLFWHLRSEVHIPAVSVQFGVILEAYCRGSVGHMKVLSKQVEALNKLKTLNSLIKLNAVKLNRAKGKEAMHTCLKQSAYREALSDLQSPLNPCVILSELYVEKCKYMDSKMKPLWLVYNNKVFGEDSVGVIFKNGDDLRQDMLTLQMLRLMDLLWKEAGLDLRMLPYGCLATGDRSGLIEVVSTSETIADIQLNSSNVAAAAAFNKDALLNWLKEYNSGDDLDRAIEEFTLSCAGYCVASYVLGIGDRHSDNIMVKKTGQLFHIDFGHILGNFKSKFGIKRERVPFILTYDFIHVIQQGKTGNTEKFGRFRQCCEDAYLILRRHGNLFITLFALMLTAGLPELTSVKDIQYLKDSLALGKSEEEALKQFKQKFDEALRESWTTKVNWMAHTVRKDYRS
T2 sequence (P27986 whole entry partner, canonical isoform): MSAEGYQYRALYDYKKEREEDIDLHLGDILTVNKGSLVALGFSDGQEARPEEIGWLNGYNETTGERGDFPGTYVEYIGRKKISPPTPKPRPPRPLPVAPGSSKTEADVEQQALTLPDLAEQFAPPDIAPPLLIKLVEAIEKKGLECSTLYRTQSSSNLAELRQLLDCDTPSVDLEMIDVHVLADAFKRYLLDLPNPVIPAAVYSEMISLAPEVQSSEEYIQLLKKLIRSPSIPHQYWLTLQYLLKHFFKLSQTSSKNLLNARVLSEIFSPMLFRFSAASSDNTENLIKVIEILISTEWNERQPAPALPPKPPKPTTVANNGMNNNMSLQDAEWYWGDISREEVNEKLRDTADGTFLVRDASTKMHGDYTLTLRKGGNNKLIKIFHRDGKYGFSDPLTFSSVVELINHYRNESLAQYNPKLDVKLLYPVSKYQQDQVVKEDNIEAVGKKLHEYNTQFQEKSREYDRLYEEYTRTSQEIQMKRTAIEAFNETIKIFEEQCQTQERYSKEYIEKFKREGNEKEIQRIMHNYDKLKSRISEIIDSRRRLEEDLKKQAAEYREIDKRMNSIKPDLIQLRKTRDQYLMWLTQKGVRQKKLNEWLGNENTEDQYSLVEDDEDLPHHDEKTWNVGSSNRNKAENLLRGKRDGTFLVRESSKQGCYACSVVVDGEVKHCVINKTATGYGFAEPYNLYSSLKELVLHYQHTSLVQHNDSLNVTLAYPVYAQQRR
Description: as §1, §2

[1] = system: CD69+B220+ cells (mouse spleen cells); assay: B cell activation assay (IgD-stimulated CD69 on B220+ spleen cells, FACS); format: cell-based; conditions: 100 nM test compound, 30 min, then IgD 3 μg/mL 4 h, read-out: CD69 @ 100 nM (% Inh)
Procedure: 1 Female mouse approximately 2 months old was euthanized with CO2 and the spleen removed. The tissue was homogenized with a polished glass microscope slide. The cells were collected in 5 mL complete medium (RPMI+10% FBS+pen/strep), placed in a 15 mL falcon tube and centrifuged at 500×g for 5 min. The supernatant was discarded and the pellet was resuspended in 3 mL of ACK lysis buffer (NH4Cl 0.17M, KHCO3 10 mM, EDTA-Na2 0.1 mM, pH 7.2), incubated at 37° C. for 5 min. 2 mL complete medium was added and the mixture centrifuged at 500×g for 5 min. The supernatant was discarded and the pellet resuspended in 1 mL complete medium. The mixture was passed through a […] cell strainer and collect in 50 mL falcon tube. Enough medium was added to have a total of 10 mL. The cells were counted and seeded in 24 or 48-well plate in 1 mL complete medium at 10^6 cells/mL. The plate was placed in a 37° C. incubator for 15 min. The cells were treated for 30 min at 37° C. with 100 nM test compound dissolved in 100% DMSO. 3 μL IgD (Accurate chemical and scientific corp.) was added at a final concentration of 3 μg/mL and the mixture incubated at 37° C. for 4 h. The cells were collected in 1.5 mL eppendorf tubes, centrifuged at 500×g for 5 min and then resuspended in 100 μL of PBS+2% FBS. The following antibodies were added: α-B220 PE (pharmingen #553090), α-CD69 APC (pharmingen #60689), live/dead fixable aqua dead cell stain kit (life technologies # L34957) all at 1:300, and the mixture incubated for 15 min at 4° C. in the dark. To this was added 900 μL of PBS+2% FBS and the mixture centrifuged at 500×g for 5 min. The supernatant was removed and the pellet resuspended in 300 μL of PBS+2% FBS and mixed well. The mixture was transferred to a cytometer tube. The samples were run in the FACS Canto II cytometer and quantified by the number of CD69+B220+ cells as a percentage of the total number of B220+ alive cells.

T1 sequence (P42336 whole entry, canonical isoform): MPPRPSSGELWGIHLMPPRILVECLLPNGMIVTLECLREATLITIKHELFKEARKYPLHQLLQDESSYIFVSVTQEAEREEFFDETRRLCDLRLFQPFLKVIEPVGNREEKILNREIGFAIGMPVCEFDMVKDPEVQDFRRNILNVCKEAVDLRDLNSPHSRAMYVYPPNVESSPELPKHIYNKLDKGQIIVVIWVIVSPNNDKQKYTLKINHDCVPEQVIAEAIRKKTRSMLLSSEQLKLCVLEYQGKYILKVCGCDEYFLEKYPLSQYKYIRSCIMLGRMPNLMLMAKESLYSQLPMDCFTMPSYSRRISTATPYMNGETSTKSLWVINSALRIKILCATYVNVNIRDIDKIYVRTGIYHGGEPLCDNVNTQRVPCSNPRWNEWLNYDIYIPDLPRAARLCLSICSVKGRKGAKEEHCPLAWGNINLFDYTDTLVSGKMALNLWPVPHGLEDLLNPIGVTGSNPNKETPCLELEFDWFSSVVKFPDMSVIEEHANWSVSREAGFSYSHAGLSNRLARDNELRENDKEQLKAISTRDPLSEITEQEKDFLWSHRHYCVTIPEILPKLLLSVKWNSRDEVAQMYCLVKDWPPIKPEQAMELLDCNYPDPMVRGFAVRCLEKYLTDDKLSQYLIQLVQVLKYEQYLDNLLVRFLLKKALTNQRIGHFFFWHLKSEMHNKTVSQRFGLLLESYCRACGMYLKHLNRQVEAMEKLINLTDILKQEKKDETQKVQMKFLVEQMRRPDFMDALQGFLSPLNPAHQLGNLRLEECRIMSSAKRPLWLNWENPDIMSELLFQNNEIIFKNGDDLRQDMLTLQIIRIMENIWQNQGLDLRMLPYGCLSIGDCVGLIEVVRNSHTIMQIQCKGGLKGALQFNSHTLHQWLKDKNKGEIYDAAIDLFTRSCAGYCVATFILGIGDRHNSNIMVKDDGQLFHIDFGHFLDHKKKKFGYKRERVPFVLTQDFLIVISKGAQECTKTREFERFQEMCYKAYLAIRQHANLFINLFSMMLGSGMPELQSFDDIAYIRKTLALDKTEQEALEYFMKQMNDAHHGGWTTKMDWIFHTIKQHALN
T1 sequence (P27986 whole entry partner, canonical isoform): as the sequence (P27986 whole entry partner, canonical isoform) above

Row | SMILES | inhibition at 0.3 µM (PI3Kα) [%] | inhibition at 0.3 µM (PI3Kβ) [%] | inhibition at 0.1 µM [1] [%] | IC50 (PI3Kα) [µM] | IC50 (PI3Kβ) [µM]
1 | Nc1ncnc2c1c(-c1cc(O)cc(F)c1)nn2CCNc1ccccc1 [Compound 1, 3-(4-amino-1-(2-(phenylamino)ethyl)-1H-pyrazolo [3,4-d]pyrimidin-3-yl)-5-fluorophenol] | 50.5 | 62 | 74.5 ± 6.72 | – | –
2 | C=CC(=O)N(CCn1nc(-c2cc(O)cc(F)c2)c2c(N)ncnc21)c1ccccc1 [Compound 2, N-(2-(4-amino-3-(3-fluoro-5-hydroxyphenyl)-1H-pyrazolo[3,4-d]pyrimidin-1-yl)ethyl)-N-phenylacrylamide] | 20.1 | 30.4 | -114 ± 72.2 | 4.21 | 5.28
3 | C=CC(=O)N(CCn1nc(-c2cc(O)cc(F)c2)c2c(N)ncnc21)Cc1ccccc1 [Compound 5, N-(2-(4-amino-3-(3-fluoro-5-hydroxyphenyl)-1H-pyrazolo[3,4-d]pyrimidin-1-yl)ethyl)-N-benzylacrylamide] | 26.4 | 45.8 | 12.5 ± 22.3 | 3.32 | 3.41
4 | C=CC(=O)N(CCn1nc(-c2cc(O)cc(F)c2)c2c(N)ncnc21)Cc1ccc(F)cc1 [Compound 10, N-{2-[4-amino-3-(3-fluoro-5-hydroxyphenyl)-1H-pyrazolo [3,4-d]pyrimidin-1-yl]ethyl}-N-[(4-fluorophenyl)methyl]prop-2-enamide] | – | 16.3 | -23.7 ± 39.7 | 0.504 | –
5 | C=CC(=O)N(CCn1nc(-c2cc(O)cc(F)c2)c2c(N)ncnc21)Cc1ccccc1F [Compound 11, N-[2-[4-amino-3-(3-fluoro-5-hydroxy-phenyl)pyrazolo[3,4-d]pyrimidin-1-yl]ethyl]-N-[(2-fluorophenyl)methyl]prop-2-enamide] | – | 41 | -23.7 ± 39.7 | 3.22 | –
6 | C=CC(=O)N(CCn1nc(-c2cc(O)cc(F)c2)c2c(N)ncnc21)Cc1ccc(Cl)cc1 [Compound 12, N-{2-[4-amino-3-(3-fluoro-5-hydroxyphenyl)-1H-pyrazolo[3,4-d]pyrimidin-1-yl]ethyl}-N-[(4-chlorophenyl)methyl]prop-2-enamide] | – | 31.3 | -44.7 ± 53.6 | 0.869 | –
7 | C=CC(=O)N(CCn1nc(-c2cc(O)c(F)c(F)c2)c2c(N)ncnc21)Cc1ccc(Cl)cc1 [Compound 16, N-{2-[4-amino-3-(3,4-difluoro-5-hydroxyphenyl)-1H-pyrazolo[3,4-d]pyrimidin-1-yl]ethyl}-N-[(4-chlorophenyl)methyl]prop-2-enamide] | – | 25.2 | -44.8 ± 29.4 | 0.29 | –
